Assay [1] deals with T1, Glutamate receptor ionotropic, NMDA 2A (Rattus norvegicus, UniProt Q00959). As to the kind of experiment: Inhibition of [3H]Glu binding to rat N-methyl-D-aspartic acid receptor 2A.
Assay [2] addresses T1, Glutamate receptor ionotropic, NMDA 2A. Description: Inhibition of [3H]CPP binding to rat N-methyl-D-aspartic acid receptor 2A.

By IC50 is commonly meant the point on the concentration scale where inhibition reaches its midpoint. A low value points to greater potency.

T1 sequence (Q00959 whole entry): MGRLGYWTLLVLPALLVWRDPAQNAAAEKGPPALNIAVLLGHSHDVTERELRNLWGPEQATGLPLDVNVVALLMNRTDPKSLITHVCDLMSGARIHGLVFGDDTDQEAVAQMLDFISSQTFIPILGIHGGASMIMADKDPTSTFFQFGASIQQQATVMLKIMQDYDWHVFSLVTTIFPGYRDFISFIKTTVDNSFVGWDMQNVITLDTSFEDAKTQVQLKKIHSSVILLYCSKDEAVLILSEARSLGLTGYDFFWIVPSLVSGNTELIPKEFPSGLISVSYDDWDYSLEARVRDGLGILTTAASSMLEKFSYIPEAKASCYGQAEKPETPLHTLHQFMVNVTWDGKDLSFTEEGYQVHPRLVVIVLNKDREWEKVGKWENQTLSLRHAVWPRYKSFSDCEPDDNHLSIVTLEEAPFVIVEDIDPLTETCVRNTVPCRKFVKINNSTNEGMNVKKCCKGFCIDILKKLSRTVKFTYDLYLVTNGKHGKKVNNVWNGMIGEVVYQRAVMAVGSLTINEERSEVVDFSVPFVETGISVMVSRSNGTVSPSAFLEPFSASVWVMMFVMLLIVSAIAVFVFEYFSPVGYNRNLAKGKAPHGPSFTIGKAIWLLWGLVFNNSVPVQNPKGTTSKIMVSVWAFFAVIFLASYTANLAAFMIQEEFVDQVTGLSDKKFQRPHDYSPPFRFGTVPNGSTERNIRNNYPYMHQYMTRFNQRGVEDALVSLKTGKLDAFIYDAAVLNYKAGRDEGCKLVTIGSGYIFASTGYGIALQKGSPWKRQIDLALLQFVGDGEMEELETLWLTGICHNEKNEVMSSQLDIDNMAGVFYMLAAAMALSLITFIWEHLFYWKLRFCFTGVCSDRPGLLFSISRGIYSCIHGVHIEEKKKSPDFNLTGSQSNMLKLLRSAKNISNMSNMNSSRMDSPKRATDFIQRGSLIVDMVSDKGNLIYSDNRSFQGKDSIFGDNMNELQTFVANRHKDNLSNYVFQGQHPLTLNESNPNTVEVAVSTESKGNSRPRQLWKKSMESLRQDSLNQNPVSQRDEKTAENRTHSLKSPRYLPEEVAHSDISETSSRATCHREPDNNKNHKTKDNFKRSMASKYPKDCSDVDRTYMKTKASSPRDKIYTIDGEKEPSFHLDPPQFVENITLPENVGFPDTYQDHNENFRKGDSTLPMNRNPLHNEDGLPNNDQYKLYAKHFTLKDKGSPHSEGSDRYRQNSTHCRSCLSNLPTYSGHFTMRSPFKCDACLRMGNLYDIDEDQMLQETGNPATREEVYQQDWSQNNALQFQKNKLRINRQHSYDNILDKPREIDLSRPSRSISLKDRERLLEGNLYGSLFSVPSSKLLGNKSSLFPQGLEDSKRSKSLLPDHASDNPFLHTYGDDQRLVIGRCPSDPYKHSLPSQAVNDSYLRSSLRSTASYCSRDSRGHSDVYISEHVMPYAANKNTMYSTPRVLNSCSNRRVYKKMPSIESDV

`CCC/C(=C\[C@@H](N)C(=O)O)CP(=O)(O)O` gave a half-maximal inhibitory concentration (IC50) in assay [1] of 230 nM.
As to `N[C@H](CC(=O)CP(=O)(O)O)C(=O)O`, the IC50 in assay [2] came out at 110 nM.
Consider `N[C@@H](CCCP(=O)(O)O)C(=O)O`, for which the IC50 in assay [2] stood at 290 nM; in assay [1], 1500 nM.
On the same counts, the results for `O=C(O)[C@@H]1C[C@H](CP(=O)(O)O)CCN1` (single isomer, unassigned) [SELFOTEL] are 95 nM and 840 nM.
On the same counts, the results for `C/C(=C\[C@@H](N)C(=O)O)CP(=O)(O)O` [CGP-37849] are 35 nM and 220 nM.

Values taken from ChEMBL document CHEMBL1145170, “Development of a three-dimensional model for the N-methyl-D-aspartate NR2A subunit” (J Med Chem, 2005).
